SMILES strings stand for the structures. Values after ≈ are worked out from the molar mass of the structure shown.

In this assay the test system is P388. Briefly: Cytotoxicity against mouse P388 cells. It is filed as functional, cell-based.
`COC(=O)C[C@](O)(CCCC(C)C)C(=O)O[C@@H]1C(OC)=C[C@]23CCCN2CCc2cc4c(cc2[C@H]13)OCO4` [HOMODEOXYHARRINGTONINE] came in with an IC50 of 0.056 µg/mL (≈ 0.106 µM).

Regarding `COC(=O)C[C@](O)(CCCCC(C)C)C(=O)O[C@@H]1C(OC)=C[C@]23CCCN2CCc2cc4c(cc2[C@H]13)OCO4` [BISHOMODEOXYHARRINGTONINE], the IC50 was 0.024 µg/mL (≈ 0.0441 µM).

For the compound `COC(=O)C[C@](O)(CC(C)C)C(=O)O[C@@H]1C(OC)=C[C@]23CCCN2CCc2cc4c(cc2[C@H]13)OCO4` [NORDEOXYHARRINGTONINE], the IC50 amounted to 0.027 µg/mL (≈ 0.0538 µM).
